Measured values reported in the Kinase Knowledgebase extract (Sharma et al. 2016).

Target: PIK3CG (human) (UniProt P48736)
Test: Inhibition of PIK3CG Kinase Activity

Chain of PIK3CG (human) (P48736 whole entry, looked up): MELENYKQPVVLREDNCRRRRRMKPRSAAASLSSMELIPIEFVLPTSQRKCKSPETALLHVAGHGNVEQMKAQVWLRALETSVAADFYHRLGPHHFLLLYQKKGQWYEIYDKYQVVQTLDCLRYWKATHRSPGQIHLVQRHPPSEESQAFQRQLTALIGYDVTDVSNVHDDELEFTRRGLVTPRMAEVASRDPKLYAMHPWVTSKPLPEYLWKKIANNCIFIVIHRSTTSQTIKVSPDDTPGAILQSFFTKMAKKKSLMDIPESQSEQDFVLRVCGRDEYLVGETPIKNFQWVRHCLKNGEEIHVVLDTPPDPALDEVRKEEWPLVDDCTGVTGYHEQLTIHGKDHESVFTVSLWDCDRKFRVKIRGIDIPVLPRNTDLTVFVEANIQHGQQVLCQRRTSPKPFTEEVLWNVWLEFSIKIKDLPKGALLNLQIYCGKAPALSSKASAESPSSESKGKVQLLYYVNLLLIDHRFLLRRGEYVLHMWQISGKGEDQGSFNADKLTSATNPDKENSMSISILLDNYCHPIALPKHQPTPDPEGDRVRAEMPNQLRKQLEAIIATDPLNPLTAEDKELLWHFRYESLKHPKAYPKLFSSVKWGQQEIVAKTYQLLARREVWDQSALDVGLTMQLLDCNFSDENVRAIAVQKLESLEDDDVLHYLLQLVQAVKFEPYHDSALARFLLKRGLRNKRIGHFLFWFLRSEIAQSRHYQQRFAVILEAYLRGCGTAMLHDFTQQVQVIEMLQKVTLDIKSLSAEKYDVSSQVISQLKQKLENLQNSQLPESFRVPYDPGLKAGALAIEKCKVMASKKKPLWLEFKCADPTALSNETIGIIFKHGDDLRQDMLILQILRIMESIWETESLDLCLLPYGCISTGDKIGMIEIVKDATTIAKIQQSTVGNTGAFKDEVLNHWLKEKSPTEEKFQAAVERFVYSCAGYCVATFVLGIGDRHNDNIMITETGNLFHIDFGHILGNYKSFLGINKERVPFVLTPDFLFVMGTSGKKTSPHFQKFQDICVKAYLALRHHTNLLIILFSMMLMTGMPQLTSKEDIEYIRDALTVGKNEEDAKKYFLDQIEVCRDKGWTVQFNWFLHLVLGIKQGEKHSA

| Compound | Ki [nM] |
| --- | --- |
| COc1cc(-c2ccc3c(n2)CN(c2ccc(N4CCC(N(C)C)C4)nc2)C3=O)cnc1OC (centres undefined) | < 100 |
| COC(=O)Cc1cncc(N2Cc3nc(-c4cnc(OC)c(OC)c4)cc(C)c3C2=O)c1 | < 100 |
| CCOc1ncc(-c2cc(C)c3c(n2)CN(c2ccon2)C3=O)cc1OC | < 100 |
| COc1ncc(-c2ccc3c(n2)CN(c2cnn(C(C)(C)C#N)c2)C3=O)cc1OC(F)F | < 100 |
| COc1cc(-c2ccc3c(n2)CN(c2cncc(CO)c2)C3=O)cnc1OC | < 100 |
| COc1cc(-c2cc(C)c3c(n2)CN(c2ccc(CO)nc2)C3=O)cnc1OC | < 100 |
| COc1cc(-c2ccc3c(n2)CN(c2ccc(N4CCC(F)CC4)nc2)C3=O)cnc1OC | < 100 |
| COc1cc(-c2cc(C)c3c(n2)CN(c2cnn(C(C)(C)C#N)c2)C3=O)cnc1O | 100 to 490 |
| CCOc1ncc(-c2cc(C)c3c(n2)[C@]2(CCCO2)N(c2ccn(CC)n2)C3=O)cc1OC | 100 to 490 |
| CCOc1cc(-c2ccc3c(n2)CN(c2cnn(CC#N)c2)C3=O)cnc1OCC | < 100 |
| COc1cc(-c2ccc3c(n2)CN(c2cncc(CN4CCOCC4)c2)C3=O)cnc1OC | 100 to 490 |
| COc1cncc(-c2cc(C)c3c(n2)CN(c2ccn(C4COC4)n2)C3=O)c1 | < 100 |
| COc1cc(-c2ccc3c(c2)CN(c2cccc(C(C)C#N)c2)C3=O)cnc1OC (centres undefined) | 100 to 490 |
| COc1cc(-c2cc(C)c3c(n2)CN(c2ccnc(OC(F)F)c2)C3=O)cnc1OC | < 100 |
| COc1cc(N2Cc3nc(-c4cnc(OC)c(OC)c4)cc(C)c3C2=O)ccn1 | < 100 |
| COc1cc(-c2ccc3c(c2)CN(c2cccc(C(N)=O)c2)C3=O)cnc1OC | < 100 |
| COc1cc(-c2ccc3c(n2)CN(c2ccn(CC4COCCO4)n2)C3=O)cnc1OC (centres undefined) | < 100 |
| COc1cc(-c2ccc3c(n2)CN(c2ccc(N4CCCC(CO)C4)nc2)C3=O)cnc1OC (centres undefined) | < 100 |
| COc1cc(-c2ccc3c(n2)[C@H](C)N(c2ccn(CC(C)(C)F)n2)C3=O)cnc1OC | < 100 |
| CCCn1cc(N2Cc3cc(-c4cnc(OC)c(OC)c4)ccc3C2=O)cn1 | 100 to 490 |

| Compound | Ki [nM] |
| --- | --- |
| COc1cc(-c2ccc3c(n2)CN(c2ccc(OCCCC(F)(F)F)nc2)C3=O)cnc1OC | < 100 |
| COc1cc(-c2ccc3c(c2)CN(c2cnn(CC(C)C)c2)C3=O)cnc1OC | 100 to 490 |
| COc1cc(-c2ccc3c(c2)CN(c2ccn(CC#N)n2)C3=O)cnc1OC | < 100 |
| COc1cc(-c2ccc3c(c2)CN(c2cccc(C(C)=O)c2)C3=O)cnc1OC | 100 to 490 |
| COc1cc(-c2ccc3c(n2)CN(c2cn[nH]c2)C3=O)cnc1OC | < 100 |
| COc1ncc(-c2cc(C)c3c(n2)CN(c2cnn(C(C)(C)C#N)c2)C3=O)c(OC)n1 | < 100 |
| COc1ncc(-c2cc(C)c3c(n2)C(C)(C)N(c2cnn(C(C)(C)C#N)c2)C3=O)cc1OCC(F)F | < 100 |
| COCCOCCOc1ncc(-c2cc(C)c3c(n2)CN(c2cnn(C)c2)C3=O)cc1OC | 100 to 490 |
| COc1cc(-c2ccc3c(n2)CN(c2cnn(Cc4cc(C)no4)c2)C3=O)cnc1OC | < 100 |
| COc1cc(-c2ccc3c(n2)CN(c2cnn(CC(F)F)c2)C3=O)cnc1OC | < 100 |
| CCn1ncc(N2Cc3nc(-c4cnc(OC)c(OC)c4)cc(C)c3C2=O)n1 | < 100 |
| COc1cc(-c2ccc3c(n2)[C@H](C)N(c2cn[nH]c2)C3=O)cnc1OC | < 100 |
| COc1cc(-c2ccc3c(n2)[C@@H](C)N(c2ccn(C[C@H](C)O)n2)C3=O)cnc1OC | < 100 |
| COc1cc(-c2ccc3c(c2)CN(c2nncs2)C3=O)cnc1OC | 100 to 490 |
| COc1cc(-c2ccc3c(n2)CN(c2ccc(N4CCNCC4)nc2)C3=O)cnc1OC | 100 to 490 |
| COc1cc(-c2cc(C)c3c(n2)CN(c2cnc(NC(C)=O)c(C)c2)C3=O)cnc1OC | < 100 |
| CCc1cc(N2Cc3nc(-c4cnc(OC)c(OC)c4)cc(C)c3C2=O)n[nH]1 | < 100 |
| COc1ccc(-c2cc(C)c3c(c2)CN(c2cnn(CC#N)c2)C3=O)cc1OC | < 100 |
| COc1ncc(-c2cc(C)c3c(n2)CN(c2cnn(C(C)(C)C#N)c2)C3=O)cn1 | < 100 |
| COc1cc(-c2ccc3c(c2)CN(c2cncc(CC#N)c2)C3=O)cnc1OC | < 100 |

The next lines start with the values.

| Ki [nM] | Compound |
| --- | --- |
| < 100 | COc1cc(-c2cc(C)c3c(n2)C(C)(C)N(c2cnn(CC(F)(F)F)c2)C3=O)cnc1OC |
| < 100 | COc1cncc(-c2cc(C)c3c(c2)CN(c2cnn(CC(F)(F)F)c2)C3=O)c1 |
| < 100 | COc1cncc(-c2cc(C)c3c(n2)[C@@]2(CCOC2)N(c2cnn(CC(F)(F)F)c2)C3=O)c1 |
| < 100 | COc1cc(OC)cc(-c2cc(C)c3c(n2)C(C)N(c2cnn(CC(F)(F)F)c2)C3=O)c1 (centres undefined) |
| < 100 | COc1ncc(-c2cc(C)c3c(n2)CN(c2cnn(CC(F)(F)F)c2)C3=O)cc1CO |
| < 100 | COc1cncc(-c2cc(C)c3c(n2)C(C)(O)N(c2cnn(CC(F)(F)F)c2)C3=O)c1 (centres undefined) |
| < 100 | CCc1cncc(-c2cc(C)c3c(n2)C(C)(C)N(c2cnn(CC(F)(F)F)c2)C3=O)c1 |
| < 100 | COc1cncc(-c2cc(C)c3c(n2)[C@@H](C)N(c2ccn(C)n2)C3=O)c1 |
| < 100 | CCOc1cc(-c2cc(C)c3c(n2)C(C)N(c2cnn(CC(F)F)c2)C3=O)cnc1C (centres undefined) |
| < 100 | CCNC(=O)c1cc(-c2cc(C)c3c(n2)C(C)N(c2cnn(CC(F)(F)F)c2)C3=O)cnc1OC (centres undefined) |
| < 100 | CCNC(=O)c1cc(-c2cc(C)c3c(n2)C(C)N(c2cnn(CC(F)F)c2)C3=O)cnc1OC (centres undefined) |
| < 100 | Cc1cc(-c2cncc(OCC(F)F)c2)nc2c1C(=O)N(c1cnn(CC#N)c1)C2(C)C |
| < 100 | COc1ncc(-c2cc(C)c3c(c2)C(C)N(c2cnn(CC(F)(F)F)c2)C3=O)cc1F (centres undefined) |
| < 100 | Cc1cc(-c2cncc(OC(C)C)c2)nc2c1C(=O)N(c1cnn(CC(F)(F)F)c1)C2 |
| < 100 | Cc1cc(-c2cncc(C(=O)NCC(F)F)c2)nc2c1C(=O)N(c1cnn(CC(F)(F)F)c1)C2(C)C |
| < 100 | COc1cc(-c2cc(C)c3c(n2)CN(c2cnn(CC(F)(F)F)c2)C3=O)ccc1Cl |
| < 100 | COc1ncc(-c2cc(C)c3c(n2)CN(c2cnn(CC(F)(F)F)c2)C3=O)cc1F |
| < 100 | COc1cc(-c2cc(C)c3c(n2)C(CC2CCOC2)N(c2cnn(CC(F)(F)F)c2)C3=O)cnc1OC (centres undefined) |
| < 100 | COc1cc(-c2cc(C)c3c(n2)[C@]2(CCCO2)N(c2cnn(CC(F)(F)F)c2)C3=O)cnc1OC |
| < 100 | CCOc1ncc(-c2cc(C)c3c(n2)C2(CCOCC2)N(c2cnn(CC(F)(F)F)c2)C3=O)cc1OC |
| < 100 | COc1cc(-c2cc(C)c3c(n2)C(OC(C)=O)N(c2cnn(CC(F)(F)F)c2)C3=O)cnc1OC (centres undefined) |
| < 100 | CCNC(=O)c1cc(-c2cc(C)c3c(n2)C2(COC2)N(c2cnn(CC(F)(F)F)c2)C3=O)cnc1C |
| < 100 | CCn1ccc(N2C(=O)c3c(C)cc(-c4cncc(OC(F)F)c4)nc3[C@H]2C)n1 |
| 100 to 490 | COc1cncc(-c2cc(C)c3c(n2)C(C)N(c2cnccn2)C3=O)c1 (centres undefined) |
| < 100 | COc1cc(-c2cc3c(c(C)n2)C(=O)N(c2cnn(CC(F)(F)F)c2)C3C)cnc1OC (centres undefined) |
| < 100 | COc1ncc(-c2cc(C)c3c(n2)C(C)(C)N(c2cnn(CC(F)(F)F)c2)C3=O)cc1C(=O)N[C@H]1CCOC1 |
| < 100 | COc1cc(-c2cc(C)c3c(n2)C(C)(C)N(c2cnn(C[C@@H](C)O)c2)C3=O)cnc1OC |

| Ki [nM] | Compound |
| --- | --- |
| < 100 | CCOc1cc(-c2cc(C)c3c(c2)C(C)N(c2cnn(CC(F)(F)F)c2)C3=O)cnc1OCC (centres undefined) |
| < 100 | CCNS(=O)(=O)c1cc(-c2cc(C)c3c(n2)C(C)(C)N(c2cnn(CC(F)(F)F)c2)C3=O)cnc1OC |
| < 100 | Cc1cc(-c2cncc(S(=O)(=O)N(C)C)c2)nc2c1C(=O)N(c1cnn(CC(F)(F)F)c1)C2(C)C |
| < 100 | CCn1ccc(N2C(=O)c3c(C)cc(-c4cncc(OC)c4)nc3C2C)n1 (centres undefined) |
| < 100 | COc1cncc(-c2cc(C)c3c(n2)CN(c2ccn(CC(F)(F)F)n2)C3=O)c1 |
| < 100 | CCn1ccc(N2Cc3nc(-c4cnc(OC)c(OCC(F)(F)F)c4)cc(C)c3C2=O)n1 |
| < 100 | COc1cc(-c2cc(C)c3c(n2)[C@@H](C)N(c2cnn(CC(F)(F)F)c2)C3=O)cnc1C |
| < 100 | CCn1cc(N2C(=O)c3ccc(-c4cnc(OC)c(OC(F)F)c4)nc3[C@@H]2C)cn1 |
| < 100 | Cc1cc(-c2cncc(C(=O)NC(C)C)c2)nc2c1C(=O)N(c1cnn(CC(F)(F)F)c1)C2(C)C |
| < 100 | CCOc1cncc(-c2cc(C)c3c(n2)[C@@H](OC)N(c2cnn(CC(F)(F)F)c2)C3=O)c1 |
| < 100 | COc1ncc(-c2cc(C)c3c(n2)C(C)(C)N(c2cnn(CC(F)(F)F)c2)C3=O)cc1C(=O)NC(C)(C)C |
| < 100 | COc1cc(-c2cc(C)c3c(n2)C2(CCOCC2)N(c2cnn(CC(F)(F)F)c2)C3=O)cnc1OC(C)C |
| < 100 | COc1cc(-c2ccc3c(n2)C(C)N(c2cnn(C=C(F)F)c2)C3=O)cnc1OC (centres undefined) |
| < 100 | COc1ncc(-c2cc(C)c3c(c2)C(C)N(c2cnn(CC(F)(F)F)c2)C3=O)nc1OC (centres undefined) |
| 100 to 490 | COc1cncc(-c2cc(C)c3c(n2)[C@]2(CCCO2)N(c2cnn(CC(F)(F)F)c2)C3=O)c1 |
| < 100 | CCn1ccc(N2C(=O)c3c(C)cc(-c4cncc(OC)c4)nc3[C@@H]2C)n1 |
| < 100 | CCOc1cncc(-c2cc(C)c3c(n2)[C@@](C)(OC)N(c2cnn(CC(F)(F)F)c2)C3=O)c1 |
| < 100 | CCn1cc(N2C(=O)c3c(C)cc(-c4cncc(OC)c4)nc3C2(C)C)cn1 |
| < 100 | COc1cc(-c2ccc3c(n2)[C@H](C)N(c2cn(CC(F)(F)F)cn2)C3=O)cnc1OC |
| < 100 | COCCOc1ncc(-c2cc(C)c3c(n2)C(C)N(c2ccn(C)n2)C3=O)cc1OC (centres undefined) |
| < 100 | Cc1cc(-c2cncc(OCC(F)F)c2)nc2c1C(=O)N(c1cnn(CC(F)(F)F)c1)C2O (centres undefined) |
| < 100 | COc1cc(-c2cc(C)c3c(n2)CN(c2cnn(CC(F)(F)F)c2)C3=O)cnc1OC |
| < 100 | Cc1cc(-c2cncc(S(C)(=O)=O)c2)nc2c1C(=O)N(c1cnn(CC(F)(F)F)c1)[C@H]2C |
| < 100 | COc1cncc(-c2cc(C)c3c(n2)C2(C[C@@H](O)[C@@H](O)C2)N(c2cnn(CC(F)(F)F)c2)C3=O)c1 (some centres undefined) |
| < 100 | CCOc1cncc(-c2cc(C)c3c(n2)C(C)(C)N(c2cnn(CC#N)c2)C3=O)c1 |
| < 100 | CCOc1cncc(-c2cc(C)c3c(n2)C(C)(C)N(c2cnn(CC(F)(F)F)c2)C3=O)c1 |
| 100 to 490 | COc1ccc(-c2cc(C)c3c(n2)CN(c2cnn(CC(F)(F)F)c2)C3=O)c(OC)c1 |
